Measured values: patent publication US20100267561A1, “HERBICIDAL PYRIDAZINONE DERIVATIVES” (priority 2007, published 2010)

Columns and labels:
[1] = test system: canarygrass (Phalaris minor); assay: Test A pre-/postemergence plant response; type: in vivo
Method in brief: (§1)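 Ratings run 0–100 (100 = complete control), assigned visually against untreated controls roughly 10 days after treatment in a greenhouse. Compounds, formulated in non-phytotoxic solvent containing surfactant, were applied as a soil-directed preemergence spray and concurrently postemergence to one- to two-leaf plants 2–10 cm tall.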

[2] = test system: blackgrass (Alopecurus myosuroides); assay: Test A pre-/postemergence plant response; type: in vivo
Method in brief: as §1

[3] = Postemergence, 31 g ai/ha, 0 to 100 scale (0 no effect, 100 complete control)
[4] = Postemergence, 125 g ai/ha, 0 to 100 scale, 0 no effect, 100 complete control
[5] = Preemergence, 31 g ai/ha, 0 to 100 scale, 0 is no effect, 100 is complete control
[6] = Preemergence, 125 g ai/ha, 0 to 100 scale (0 no effect, 100 complete control)

Structure (SMILES)	Plant response rating, Canarygrass [1, 3]	Plant response rating, Canarygrass [1, 4]	Plant response rating, Canarygrass [1, 5]	Plant response rating, Canarygrass [1, 6]	Plant response rating, Blackgrass [2, 3]	Plant response rating, Blackgrass [2, 4]	Plant response rating, Blackgrass [2, 5]	Plant response rating, Blackgrass [2, 6]
COCc1cc(-c2ccc(Br)cc2)nn1-c1c(O)cnn(C)c1=O [Compound 68]	0	40	0	20	0	80	0	50
Cc1cc(-c2ccc(Cl)cc2)nn1-c1c(OC(=S)N(C)C)cnn(C)c1=O [Compound 69]	0	80		80	10	60	20	40
Cc1nn(C)c(=O)c(-n2nc(-c3ccc(C(F)(F)F)cc3)cc2C)c1O [Compound 75, 5-hydroxy-2,6-dimethyl-4-[5-methyl-3-[4-(trifluoromethyl)phenyl]-1H-pyrazol-1-yl]-3(2H)-pyridazinone]	10	80	10	80	40	90	40	80
Cc1cc(-c2ccc(Br)cc2)nn1-c1c(O)cn[nH]c1=O [Compound 78, 4-[3-(4-bromophenyl)-5-methyl-1H-pyrazol-1-yl]-5-hydroxy-3(2H)-pyridazinone]	40	70	0	100	90	100	0	100
Cc1cc(-c2ccc(Br)cc2)nn1-c1c(OC(=O)C2CC2)cnn(C(=O)C2CC2)c1=O [Compound 80, 5-[3-(4-bromophenyl)-5-methyl-1H-pyrazol-1-yl]-1-(cyclopropylcarbonyl)-1,6-dihydro-6-oxo-4-pyridazinyl cyclopropanecarboxylate]	40	100	60	100	30	100	70	100
Cc1nn(C)c(=O)c(-n2nc(-c3ccc(Br)cc3)cc2C)c1O [Compound 81]	60	100	50	90	100	100	70	100
